Measured values reported in patent US20220281848A1, “PYRAZOLE-SUBSTITUTED PYRROLIDINONES AS HERBICIDES” (FMC Corporation, priority 2019, published 2022).

How the values were obtained:
Assay type in all cases: in vivo
[1] = test system: wheat; experiment: Test D pre-emergence, wheat seed treated with a herbicide safener; conditions: 100=total damage, 0=no damage
Protocol: (§1) A formulation containing 50 g/L of the test chemical was prepared by dissolving the active ingredient in a mixture of organic solvents and emulsifier, details of which are provided in the table. This formulation was then mixed with a small, variable amount of acetone to aid dissolution, before addition of a 0.2% v/v aqueous solution of an adjuvant, as the aqueous diluent, to form an aqueous spray solution which contains a predetermined concentration of the active ingredient.
(§2) This aqueous spray solution was then sprayed onto plants including maize and wheat that had been seed treated with a herbicide safener, after one day's cultivation (for pre-emergence) or after about 12 days' cultivation (for post-emergence). The plants were grown from seeds sown in standard soil, placed in a glasshouse under controlled conditions (at 24/18° C. or 20/16° C., day/night; 16 h light; 65% humidity). After spray application the plants were then grown in a glasshouse under the same conditions and watered twice daily. After 15 d for post-emergence and 20 DAA for pre-emergence the test was evaluated (100=total damage to plant; 0=no damage to plant).

[2] = test system: maize; experiment: Test D pre-emergence, maize seed treated with a herbicide safener; conditions: preemergent; for damage to plant (100=total damage to plant; 0=no damage to plant), ZEAMX: 20 DAA; for ZEAMX damage to plant (100=total damage; 0=no damage): safener-treated seed
Protocol: as §1, §2

[3] = test system: barnyardgrass (Echinochloa crus-galli, ECHCG); experiment: Test A post-emergence, barnyardgrass; conditions: after 13 d
Summary of the method: (§3)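 Visual damage at 13 d after treatment, rated from 0 (no damage) to 100 (total damage). Eight-day-old pot-grown plants had been sprayed with 15.625, 62.5 or 250 g/ha of compound in aqueous acetone (50:50) containing 0.5% Tween 20.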

[4] = test system: velvetleaf (Abutilon theophrasti, ABUTH); experiment: Test A pre-emergence, velvetleaf; conditions: after 13 d
Summary of the method: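 Seeds were sown in standard soil in pots, kept one day in a glasshouse (24/16° C. day/night, 14 h light, 65% humidity), then sprayed with compound in acetone/water (50:50) containing 0.5% Tween 20 at 15.625, 62.5 or 250 g/ha. Plants grew on under the same conditions, watered twice daily, and damage was scored after 13 d (0 = none, 100 = total).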

[5] = test system: ivy-leaved morning glory (Ipomoea hederacea, IPOHE); experiment: Test A post-emergence, ivy-leaved morning glory; conditions: after 13 d
Summary of the method: as §3

Row | SMILES | damage to plant, TRZAW ([1]; rate 15, 20 DAA) | damage to plant, TRZAW ([1]; rate 30, 20 DAA) | damage to plant, TRZAW ([1]; rate 60, 20 DAA) | damage to plant, TRZAW ([1]; rate 130, 20 DAA) | damage to plant, TRZAW ([1]; rate 250, 20 DAA) | damage to plant, TRZAW ([1]; rate 500, 20 DAA) | damage to plant (100=total damage to plant; 0=no damage to plant), ZEAMX ([2]; rate 15) | damage to plant (100=total damage to plant; 0=no damage to plant), ZEAMX ([2]; rate 30) | damage to plant (100=total damage to plant; 0=no damage to plant), ZEAMX ([2]; rate 60) | damage to plant (100=total damage to plant; 0=no damage to plant), ZEAMX ([2]; rate 130) | damage to plant (100=total damage to plant; 0=no damage to plant), ZEAMX ([2]; rate 250) | damage to plant (100=total damage to plant; 0=no damage to plant), ZEAMX ([2]; rate 500) | damage to plant (100=total damage; 0=no damage) ECHCG ([3]; Post-Emergence at 15.625 g/ha) | damage to plant (100=total damage; 0=no damage) ECHCG ([3]; Post-Emergence at 62.5 g/ha) | damage to plant (100=total damage; 0=no damage) ECHCG ([3]; Post-Emergence at 250 g/ha) | damage to plant (100=total damage; 0=no damage) ABUTH ([4]; Pre-Emergence at 15.625 g/ha) | damage to plant (100=total damage; 0=no damage) ABUTH ([4]; Pre-Emergence at 62.5 g/ha) | damage to plant (100=total damage; 0=no damage) ABUTH ([4]; Pre-Emergence at 250 g/ha) | damage to plant (100=total damage; 0=no damage) IPOHE ([5]; Post-Emergence at 62.5 g/ha) | damage to plant (100=total damage; 0=no damage) IPOHE ([5]; Post-Emergence at 250 g/ha) | other results
1 | CN1CC(c2cc(C(F)(F)F)n(C)n2)C(C(=O)Nc2cccc(F)n2)C1=O (racemic) [Compound 24] | 0 | 0 | 0 | 0 | 0 | 10 | 0 | 0 | 0 | 0 | 0 | 0 | 40 | 80 | 80 | 0 | 0 | 0 | 20 | 50 | damage to plant (100=total damage; 0=no damage) IPOHE ([5]; Post-Emergence at 15.625 g/ha): 10
2 | CN1CC(c2cnn(C)c2C(F)(F)F)C(C(=O)Nc2cccc(F)c2F)C1=O (racemic) [Compound 25] | 0 | 0 | 0 | 0 | 0 | 0 | 0 | 0 | 0 | 0 | 0 | 0 | 30 | 70 | 80 | 0 | 10 | 40 | 40 | 40 | damage to plant (100=total damage; 0=no damage) IPOHE ([5]; Post-Emergence at 15.625 g/ha): 10
3 | CN1CC(c2cc(C(F)(F)F)n(C)n2)C(C(=O)Nc2ccc(F)cc2C(C)(F)F)C1=O (racemic) [Compound 26] | 0 | 0 | 0 | 10 | 70 | 30 | 0 | 0 | 0 | 0 | 0 | 0 |  | 70 | 90 |  | 0 | 0 | 20 | 50 | 
4 | CN1CC(c2cc(Cl)n(C)n2)C(C(=O)Nc2ccc(F)c(F)c2F)C1=O (racemic) [Compound 31] |  |  | 0 | 0 | 0 | 0 |  |  |  |  |  |  | 50 | 80 | 80 | 0 | 0 | 0 | 30 | 40 | TRZAW damage rating ([1]; Rates 15, 20 DAA): 0; TRZAW damage rating ([1]; Rates 30, 20 DAA): 0; ZEAMX damage to plant (100=total damage; 0=no damage) ([2]; Rates 15, 20 DAA): 0; ZEAMX damage to plant (100=total damage; 0=no damage) ([2]; Rates 30, 20 DAA): 0; ZEAMX damage to plant (100=total damage; 0=no damage) ([2]; Rates 60, 20 DAA): 0; ZEAMX damage to plant (100=total damage; 0=no damage) ([2]; Rates 130, 20 DAA): 0; ZEAMX damage to plant (100=total damage; 0=no damage) ([2]; Rates 250, 20 DAA): 0; ZEAMX damage to plant (100=total damage; 0=no damage) ([2]; Rates 500, 20 DAA): 0; damage to plant (100=total damage; 0=no damage) IPOHE ([5]; Post-Emergence at 15.625 g/ha): 20
5 | CN1C[C@H](c2nn(C)c3c(F)cccc23)[C@@H](C(=O)Nc2cccc(F)c2F)C1=O [Compound 2] | 0 | 0 | 0 | 10 | 20 | 80 | 0 | 0 | 0 | 0 | 0 | 10 | 0 | 90 | 90 | 0 | 0 | 0 | 0 | 0 | damage to plant (100=total damage; 0=no damage) IPOHE ([5]; Post-Emergence at 15.625 g/ha): 0
6 | CCn1nc([C@H]2CN(C)C(=O)[C@@H]2C(=O)Nc2cccc(F)c2F)c2ccc(F)cc21 [Compound 4] | 0 | 0 | 0 | 0 | 0 | 0 | 0 | 0 | 0 | 0 | 0 | 10 | 80 | 90 | 90 | 0 | 0 | 0 | 0 | 20 | damage to plant (100=total damage; 0=no damage) IPOHE ([5]; Post-Emergence at 15.625 g/ha): 0
7 | CCn1nc([C@H]2CN(C)C(=O)[C@@H]2C(=O)Nc2cccc(F)c2F)c2c(F)cccc21 [Compound 7] | 0 | 0 | 0 | 0 | 0 | 0 | 0 | 0 | 0 | 0 | 0 | 10 | 60 | 80 | 80 | 0 | 0 | 0 | 20 | 0 | damage to plant (100=total damage; 0=no damage) IPOHE ([5]; Post-Emergence at 15.625 g/ha): 20
